According to the supplement of paper PMC10307832:

Key:
Assay in all cases: relative viability (nuclei count vs DMSO), 5 days (fraction); higher = more cells survive
[1] = compound: CC1=CN=C(N=C1C2=CNC(=C2)C(=O)N[C@H](CO)C3=CC(=CC=C3)Cl)NC4=C(C=C(C=C4)F)Cl [VX-11e] + Nc1nc2[nH]cc(CCc3ccc(C(=O)N[C@@H](CCC(=O)O)C(=O)O)cc3)c2c(=O)[nH]1 [Pemetrexed] (partner 0.2 µM)
Summary of the method: (§1)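 Medians of duplicate plates are given as relative viability. That measure is the nuclei count in treated wells divided by the count in vehicle wells. Counts were taken on 4× images of lung cancer cell lines in 1536-well plates, 5 days after pin-tool dosing the day after seeding with one drug alone or a fixed anchor-drug dose plus five library-drug doses (not always all listed) in √10 steps.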

[2] = compound: CC1=CN=C(N=C1C2=CNC(=C2)C(=O)N[C@H](CO)C3=CC(=CC=C3)Cl)NC4=C(C=C(C=C4)F)Cl [VX-11e] + O=C(c1cc(Cc2n[nH]c(=O)c3ccccc23)ccc1F)N1CCN(C(=O)C2CC2)CC1 [Olaparib] (partner 8 µM)
Summary of the method: as §1

[3] = compound: CC1=CN=C(N=C1C2=CNC(=C2)C(=O)N[C@H](CO)C3=CC(=CC=C3)Cl)NC4=C(C=C(C=C4)F)Cl [VX-11e] + CC(C)C[C@H](NC(=O)[C@H](Cc1ccccc1)NC(=O)c1cnccn1)B(O)O [Bortezomib] (partner 0.002 µM)
Summary of the method: as §1

[4] = compound: CC1=CN=C(N=C1C2=CNC(=C2)C(=O)N[C@H](CO)C3=CC(=CC=C3)Cl)NC4=C(C=C(C=C4)F)Cl [VX-11e] + Cc1nc(NC(=O)N2CCC[C@H]2C(N)=O)sc1-c1ccnc(C(C)(C)C(F)(F)F)c1 [Alpelisib] (partner 2 µM)
Summary of the method: as §1

Row | Cell Line | relative viability ([1]; first compound 0.04 µM) | relative viability ([1]; first compound 0.1265 µM) | relative viability ([1]; first compound 0.4 µM) | relative viability ([1]; first compound 1.265 µM) | relative viability ([1]; first compound 4 µM) | relative viability ([2]; first compound 0.04 µM) | relative viability ([2]; first compound 0.1265 µM) | relative viability ([2]; first compound 0.4 µM) | relative viability ([2]; first compound 1.265 µM) | relative viability ([2]; first compound 4 µM) | relative viability ([3]; first compound 0.04 µM) | relative viability ([3]; first compound 0.1265 µM) | relative viability ([3]; first compound 0.4 µM) | relative viability ([3]; first compound 1.265 µM) | relative viability ([3]; first compound 4 µM) | relative viability ([4]; first compound 0.04 µM) | relative viability ([4]; first compound 0.1265 µM) | relative viability ([4]; first compound 1.265 µM) | relative viability ([4]; first compound 4 µM) | relative viability ([4]; first compound 0.4 µM)
1 | NCI-H2405 | 1.09 | 0.957 | 0.678 | 0.989 | 0.501 | 0.961 | 0.814 | 0.333 | 0.873 | 0.379 | 1.04 | 0.953 | 0.988 | 0.952 | 0.601 | 0.857 | 0.726 | 0.602 | 0.209 | 
2 | NCI-H3122 | 0.202 | 0.205 | 0.162 | 0.171 | 0.152 | 0.717 | 0.661 | 0.689 | 0.558 | 0.468 | 1.11 | 1.03 | 0.743 | 0.832 | 0.676 | 0.652 | 0.753 | 0.672 | 0.329 | 0.566
3 | PC-3 [JPC-3] | 1.08 | 1.09 | 1.12 | 0.976 | 0.846 | 1.23 | 1.09 | 1.09 | 1.19 | 0.901 | 0.91 | 0.828 | 0.803 | 0.993 | 0.719 | 1.03 | 1.02 | 1.15 | 0.827 | 1
4 | PC-14 | 0.132 | 0.108 | 0.148 | 0.134 | 0.112 | 0.269 | 0.261 | 0.222 | 0.22 | 0.214 | 0.967 | 0.798 | 0.818 | 0.869 | 0.527 | 1.13 | 0.916 | 0.918 | 0.459 | 0.676
5 | RERF-LC-KJ | 0.522 | 0.468 | 0.42 | 0.442 | 0.417 | 1.11 | 0.884 | 0.945 | 0.921 | 0.979 | 1 | 1.04 |  | 1.03 | 0.894 | 1.47 | 0.739 | 0.829 | 0.551 | 
6 | SK-LU-1 | 1.01 | 0.981 | 0.975 | 0.596 | 0.301 | 0.537 | 0.446 | 0.394 | 0.365 | 0.239 | 1.01 | 0.718 |  | 0.895 | 0.452 | 1.26 | 1.1 | 0.592 | 0.263 | 1.05
7 | SW 1573 |  | 0.88 | 0.703 | 0.559 | 0.393 | 0.551 | 0.472 | 0.453 | 0.398 | 0.23 | 0.812 | 0.854 | 1.02 | 0.826 | 0.64 | 0.791 | 0.825 | 0.59 | 0.39 | 0.767
8 | UMC-11 | 0.799 | 0.762 | 0.866 | 0.754 | 0.681 | 0.377 | 0.369 | 0.331 | 0.335 | 0.38 | 0.562 | 0.668 | 0.714 | 0.598 | 0.551 | 0.921 | 1 | 0.97 | 0.973 | 0.962
